Assay results from publication PMC12168616, “Machine Learning‐Assisted Prediction and Generation of Antimicrobial Peptides” (Small Science, 2025).
Read-outs that look alike come from different tables or passages of the source. Ends that are not written are not given here.

Tests used:
E. Faecalis ATCC19433 = format: cell-based, Enterococcus faecalis
Text: (§1) To evaluate the susceptibility of the different peptide sequences against clinical isolates of various bacterial pathogens, we used the minimum inhibitory concentration (MIC) assay. The MIC measures the efficacy of peptides in inhibiting bacterial growth. The specific MIC values of various peptides against Enterococcus […] ATCC19433, Staphylococcus aureus ATCC25923, Klebsiella pneumoniae ATCC43816, Acinetobacter baumannii AB5075, Pseudomonas aeruginosa PAO1, and Enterobacter species ATCC13048 were determined by measuring optical density at 600 nm (OD600 nm). […] The growth inhibition curves were used to estimate the MIC values.
(§2) Bacteria: The MIC was the lowest concentration of a drug, which inhibited the visible growth of a bacteria and could be determined by reading the absorption at 600 nm (OD600 nm) using a spectrophotometer. The peptides were subjected to antibacterial testing against gram‐positive and gram‐negative pathogens. All the ESKAPE pathogens (E. faecalis ATCC19433, S. aureus ATCC25923, K. pneumoniae ATCC43816, A. baumannii AB5075, P. aeruginosa PAO1, and E. aerogenes ATCC13048) were inoculated from nutrient agar plates to obtain a bacterial suspension by incubating the colony of bacteria in a flask containing 10 mL of Mueller Hinton broth II (MHB) at 37 °C for 24 h with gentle shaking (75 rpm). The bacterial suspensions were then diluted in MHB to 1 × 10^6 colony‐forming units (CFU) of bacteria mL^−1. Next, using serial dilutions in 96‐well plates, different concentrations of each peptide from 1.5–400 μM were prepared. 100 μL of peptide solutions at final concentration ranging between 0.75–200 μM were then added to a 96‐well plate containing 100 μL of diluted bacterial suspension. After 18–24 h incubation at 37 °C, the turbidity of the samples was observed, and the optical density of bacteria was measured using OD600 nm. All assays were performed in duplicates. The MICs were calculated as ≥90% inhibition of bacteria growth compared to the positive control wells.

S. Aureus ATCC25923 = format: cell-based, Staphylococcus aureus
Text: as §1, §2

K. Pneumoniae ATCC43816 = format: cell-based, Klebsiella pneumoniae
Text: as §1, §2

A. Baumannii AB5075 = format: cell-based, Acinetobacter baumannii
Text: as §1, §2

P. Aeruginosa PAO1 = format: cell-based, Pseudomonas aeruginosa
Text: as §1, §2

E. Aerogenes ATCC13048 = format: cell-based, Enterobacter aerogenes
Text: as §1, §2

ESKAPE pathogens = experiment: MIC assay, bacteria, strain of the six not assignable or not specified; format: cell-based; settings: one of the six ESKAPE strains, left to right order; MHB II, 18–24 h, 37 °C, OD600 nm, ≥90% inhibition, duplicates
Text: as §1, §2

[1] = broth microdilution, Mueller Hinton broth II, peptide 0.75–200 μM, 18–24 h at 37 °C, OD600 nm, MIC = ≥90% inhibition, duplicates

| Substance | MIC E. Faecalis ATCC19433 (E. Faecalis ATCC19433; ATCC19433) | MIC S. Aureus ATCC25923 (S. Aureus ATCC25923; ATCC25923) | MIC K. Pneumoniae ATCC43816 (K. Pneumoniae ATCC43816; ATCC43816) | MIC A. Baumannii AB5075 (A. Baumannii AB5075; AB5075) | MIC P. Aeruginosa PAO1 (P. Aeruginosa PAO1; PAO1) | MIC E. Aerogenes ATCC13048 (E. Aerogenes ATCC13048; ATCC13048) | further results |
| --- | --- | --- | --- | --- | --- | --- | --- |
| KGFAKMFRLLKKLAR-NH2 [MLWH 32] | 12.5 µM | 6 µM | 12.5 µM | 3 µM | 25 µM | 25 µM |  |
| KHVFAFLGGKLVKLK-NH2 [MLWH 35] |  |  | 200 µM | 50 µM |  |  |  |
| KLKGLIFAWFKGIIA-NH2 [MLWH 45] | 25 µM | 100 µM | 100 µM | 25 µM | 200 µM | 25 µM |  |
| LGVKPVFKFFKFFGK [MLWH51, peptide generated using algorithm, list 2] |  |  |  |  |  |  | MIC E. Faecalis ATCC19433 (E. Faecalis ATCC19433; [1]): 100 µM; MIC S. Aureus ATCC25923 (S. Aureus ATCC25923; [1]): 200 µM; MIC K. Pneumoniae ATCC43816 (K. Pneumoniae ATCC43816; [1]): 100 µM; MIC A. Baumannii AB5075 (A. Baumannii AB5075; [1]): 12.5 µM; MIC P. Aeruginosa PAO1 (P. Aeruginosa PAO1; [1]): 50 µM; MIC E. Aerogenes ATCC13048 (E. Aerogenes ATCC13048; [1]): 200 µM |
| LLGFTAFIKGQIKTA-NH2 [MLWH09] | 50 µM | 50 µM | 100 µM | 200 µM | 200 µM | 100 µM |  |
| NFKIIKKVGIKLKGA-NH2 [MLWH 33] |  |  |  | 100 µM |  |  |  |
| PKWHKNKMFKFKRKF [MLWH98, peptide generated using algorithm, list 2] |  |  |  |  |  |  | MIC, Table S7, 4th value printed in the line (strain column cannot be told) (ESKAPE pathogens): 200 µM |
| PSKYAKIAIKFHKQI [MLWH61, peptide generated using algorithm, list 2] |  |  |  |  |  |  | MIC, Table S7, 4th value printed in the line (strain column cannot be told) (ESKAPE pathogens): 50 µM |
| QGWIKIILPHIRYIK [MLWH57, peptide generated using algorithm, list 2] |  |  |  |  |  |  | MIC, Table S7, 4th value printed in the line (strain column cannot be told) (ESKAPE pathogens): 25 µM |
| RMFFKFKKKFKKWGQ [MLWH74, peptide generated using algorithm, list 2] |  |  |  |  |  |  | MIC E. Faecalis ATCC19433 (E. Faecalis ATCC19433; [1]): 200 µM; MIC S. Aureus ATCC25923 (S. Aureus ATCC25923; [1]): 50 µM; MIC K. Pneumoniae ATCC43816 (K. Pneumoniae ATCC43816; [1]): 25 µM; MIC A. Baumannii AB5075 (A. Baumannii AB5075; [1]): 25 µM; MIC P. Aeruginosa PAO1 (P. Aeruginosa PAO1; [1]): 200 µM; MIC E. Aerogenes ATCC13048 (E. Aerogenes ATCC13048; [1]): 100 µM |
| TKFGQKVIKLIAQFL-NH2 [MLWH 24] | 6 µM | 12.5 µM | 6 µM | 3 µM | 25 µM | 6 µM |  |
| TLVKAVAHIAKLLKF-NH2 [MLWH 22] | 100 µM | 100 µM | 50 µM | 12.5 µM | 200 µM | 200 µM |  |
| VHKAFRKGSGAAILW-NH2 [MLWH 27] |  |  | 200 µM | 200 µM |  |  |  |
| VIYSIGLRIFNKIRP [MLWH99, peptide generated using algorithm, list 2] |  |  |  |  |  |  | MIC, Table S7, 4th value printed in the line (strain column cannot be told) (ESKAPE pathogens): 200 µM |
| VQKLLKFKLKITAKA-NH2 [MLWH08] | 100 µM |  | 50 µM | 100 µM | 200 µM | 50 µM |  |
| WFKAIAIGLGKFIAK-NH2 [MLWH 14] | 25 µM | 25 µM | 25 µM | 25 µM |  | 25 µM |  |
| YFHLKKSFGKKLKRV-NH2 [MLWH 41] |  |  |  | 100 µM |  |  |  |
